The target of one assay is T1, DrOTOP1 F277A (Danio rerio, UniProt Q7ZWK8, F277A).
T1 construct: A previously generated codon-optimized full-length DrOTOP1[8]; (UniProt: Q7ZWK8) construct; expressed in transfected cells; host or cells: HEK-293 (CRL-1573, ATCC)
T1 sequence (Q7ZWK8 1-586 F277A): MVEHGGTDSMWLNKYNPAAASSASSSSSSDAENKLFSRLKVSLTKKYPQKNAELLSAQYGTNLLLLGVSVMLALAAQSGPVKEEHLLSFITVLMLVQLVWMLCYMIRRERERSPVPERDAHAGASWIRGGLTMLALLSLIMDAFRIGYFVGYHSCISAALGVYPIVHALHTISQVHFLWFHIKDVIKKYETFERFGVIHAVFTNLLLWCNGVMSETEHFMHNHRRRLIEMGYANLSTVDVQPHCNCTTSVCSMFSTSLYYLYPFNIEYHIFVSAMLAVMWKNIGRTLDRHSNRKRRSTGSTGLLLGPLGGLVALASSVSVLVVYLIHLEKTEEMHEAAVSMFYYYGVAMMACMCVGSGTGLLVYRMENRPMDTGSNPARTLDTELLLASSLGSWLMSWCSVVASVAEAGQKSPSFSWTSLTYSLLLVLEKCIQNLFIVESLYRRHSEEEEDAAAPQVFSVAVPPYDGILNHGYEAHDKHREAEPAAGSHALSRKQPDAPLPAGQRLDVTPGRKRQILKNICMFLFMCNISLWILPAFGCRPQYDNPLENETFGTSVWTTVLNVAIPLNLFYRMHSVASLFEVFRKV
The assay is described as follows: Whole-cell patch-clamp, inhibition of acid-evoked currents, DrOTOP1 F277A. Conditions: single cells or mean. It is filed as cell-based, zebrafish (Danio rerio). The source says:
(§1) To functionally test the significance of the two binding sites identified by cryo-EM, we generated point mutations of DrOTOP1 using the binding poses and conformational changes observed in DrOTOP1_C2.2 to guide our mutations. As per the binding pose that best fits our cryo-EM density, C2.2 forms the following interactions in the outer site: hydrophobic packing against many non-polar residues W126, G130, M133, L134, F271, F570, and M573, and π-stacking with W532 (Fig. 5A). In addition, C2.2 could potentially form H-bonds with E267, if the sidechain is protonated or a water bridge is present, and with H574 if it moves closer (Fig. 5A). Likewise, C2.36 presents a heterocyclic nitrogen that can potentially form a H-bond with E267, similarly, provided a protonation or water bridge is present (Fig. 5B). In addition, C2.36 forms a T-shaped π-stacking interaction with H574, whose sidechain has rotated 90 degrees (compared to DrOTOP1_apo), presumably to accommodate the interaction (Fig. 5B). […]
(§2) Whole-cell patch-clamp recording was performed as previously described[6],[22],[25]. Recordings were made with an Axopatch 200B amplifier, digitized with a Digidata 1322a 16-bit data acquisition system, acquired with pClamp 8.2 and analyzed with Clampfit 10 (Molecular Devices). […]
(In general: In patch-clamp work, channel activity is measured electrically.)

The target of a further assay is T2, DrOTOP1 A388W (Danio rerio, UniProt Q7ZWK8, A388W).
T2 construct: A previously generated codon-optimized full-length DrOTOP1[8]; (UniProt: Q7ZWK8) construct; expressed in transfected cells; host or cells: HEK-293 (CRL-1573, ATCC)
T2 sequence (Q7ZWK8 1-586 A388W): T1 sequence (Q7ZWK8 1-586 F277A) with A277F, A388W
The assay is described as follows: Whole-cell patch-clamp, inhibition of acid-evoked currents, DrOTOP1 A388W. Format: cell-based, zebrafish (Danio rerio). The settings on record: single cells.
From the text: as §1, §2

Positions count from the first letter of the chain named. Several values for one entry are separate records, joined by “and”; a condition that tells them apart may be missing. Identical values can stand only once.

In general, inhibition refers to the drop in the measured response relative to a control, in per cent.

On to `C=C(C)COc1ccccc1NC(=O)c1nc[nH]c1C` [C2.2], for which, on DrOTOP1 F277A, testing at 10 µM gave an inhibition of 76.2%. For the molecule `O=C(/C(=N\O)c1ccccc1)c1ccccc1` [C11, benzil monoxime], the Inhibition of currents at DrOTOP1 A388W (100 µM) is 53.4353% and 72.6918% and 53.0458% and 57.2816% and 61.0959%. The molecule also gave an inhibition at 100 µM against DrOTOP1 A388W of 72.4%.
